Experimental data: patent publication US6900239B2, “Tumor chemopotentiation using isocoumarin derivatives” (ILWZ ILEX Products, Inc., priority 2000, dated 2005)

What was measured:
[1] = tested on: NIH3T3 cells (fibroblasts); assay: Cell growth (WST-1) in the presence of NM-3; format: cell-based; settings: Mus musculus, NIH3T3, 72 h; 3 days culture with NM-3
Method: (§1) To determine the extent to which NM-3 [2-(8-hydroxy-6-methoxy-1-oxo-1H-2-benzopyran-3-yl) propionic acid] inhibited the proliferation of, or was cytotoxic toward, human tumor cells and normal mouse cells, a variety of cell lines were grown in the presence of NM-3. The human cell lines used were K562 (leukemia cells), HT29 (colon tumor cells) HT1080 (reticulum blast sarcoma cells), and MCF7 (breast tumor cells). The mouse cells used were NIH3T3 cells (fibroblasts). All cell lines were cultured in 96-well plates to a density of 2-5×10^3 cells/well. Culture medium (RPMI 1640 plus 10% FBS) alone or containing NM-3 at one of several concentrations tested was then added to the cultures which were allowed to grow for an additional 3 days. To assess cell growth, 10 μl of WST-1 reagent (a chromogenic substrate for living cells) was added to each well and incubation continued for 3 hrs at 37° C. Absorbance at 450 nm was then determined using a plate reader.

K562 (leukemia cells) = assay: Cell growth (WST-1) in the presence of NM-3; format: cell-based; settings: Homo sapiens, K562, 72 h; 3 days culture with NM-3
Method: as §1

[2] = tested on: HT1080 (reticulum blast sarcoma cells); assay: Cell growth (WST-1) in the presence of NM-3; format: cell-based; settings: Homo sapiens, HT-1080, 72 h; 3 days culture with NM-3
Method: as §1

[3] = tested on: MCF7 (breast tumor cells); assay: Cell growth (WST-1) in the presence of NM-3; format: cell-based; settings: Homo sapiens, MCF7, 72 h; 3 days culture with NM-3
Method: as §1

HT29 (colon tumor cells) = assay: Cell growth (WST-1) in the presence of NM-3; format: cell-based; settings: Homo sapiens, HT-29, 72 h; 3 days culture with NM-3
Method: as §1

IMC carcinoma = assay: Combination with cyclophosphamide, tumor weight; format: in vivo, CDF1 mice; settings: for Solid Weight mg ± S.D.: day 42
Method: To determine the effect on IMC carcinoma growth of NM-3 treatment combined with simultaneous cyclophosphamide treatment, IMC carcinoma cells (1×10^6 cells per mouse) were subcutaneously transplanted into CDF1 mice (female, 10 weeks old) in the inguinal area. NM-3 which was dissolved using 5% DMSO+Tween80, was continuously orally administered from day 1 to day 41 after transplantation except on day 14, when cyclophosphamide (300 mg/kg) was injected intravenously.

[4] = tested on: MDAMB-435 human breast tumor xenografts; assay: MDAMB-435 orthotopic model, NM-3 with 5-Fluorouracil; format: in vivo, female NCRNU nude mice; settings: NM-3 100 mg/kg/day i.p. alone
Method: In order to evaluate the antitumor activity of NM-3 in combination with 5-Fluorouracil (5-FU) vs. MDAMB-435 human breast tumor xenografts, female NCRNU nude mice were implanted with MDAMB-435 cells into the subaxillary mammary fat pad. When the tumors were between 50 and 80 mm^3, NM-3 was administered via intraperitoneal (i.p.) injection daily at 10 and 100 mg/kg; 5-FU was administered via i.p. injection on days 0 and 14, at 10 mg/kg. Mice were weighed twice weekly, and tumor measurements were taken by calipers twice weekly. Mice were euthenized at the end of the treatment period. Upon termination, the mice were weighed, sacrificed and their tumors were excised.
Initial studies were conducted with 5-FU to determine the optimal dose of this agent when administered in combination with NM-3.

LLC tumor = assay: LLC tumors, second experiment, complete cures; format: in vivo; settings: NM-3 25 μg/kg daily over the first four days + 20 Gy X-irradiation on days 2 and 4
Method: In a second similar experiment, X-ray treatment and X-ray treatment combined with NM-3 treatment were again compared for their relative abilities to inhibit LLC tumor growth. However, the treatment period was extended to determine whether either treatment regimen was able to initiate complete tumor cures. Animals were injected with […] initially and starting tumor volumes were approximately 500 mm^3. Tumors were irradiated on days 2 and 4 with 20 Gy X-irradiation. NM-3 was administered at 25 μg/kg daily over the first four days. The tumors of both groups increased slightly in size following initiation of treatment and then began to decrease after several days. Tumors in the X-ray only group began to increase steadily in size after the 10th day of continuous treatment. In contrast, tumors in the NM-3+X-ray group continued to decrease in size following the initial growth phase. Ultimately, 9 of 10 animals receiving NM-3+X-ray treatment experienced a complete cure while only 3 of 10 animals were cured by the X-ray treatment alone.

PC6 = assay: Cell growth (WST-1) in the presence of NM-3; format: cell-based; settings: Homo sapiens, PC-6, 72 h; 3 days culture with NM-3
[5] = tested on: Human umbilical vein endothelial cells (HUVEC); assay: HUVEC colony survival with increasing doses of X-rays; format: cell-based; settings: highest X-ray dose
Method: In another study of HUVEC radiation sensitivity, cells were treated with NM-3 (100 ng/ml) 1 hr prior to exposure of the cells to increasing doses of gamma irradiation (X-rays). The numbers of HUVEC colonies that formed following the different treatments were recorded and normalized to the number of colonies formed under control conditions (see FIG. 2). Increasing doses of X-rays in the absence of NM-3 decreased HUvEC colony survival to a minimal value of 10% survival at the highest dose tested. In the presence of NM-3, HUVEC colony survival decreased to 0.01% of the initial living cells at the highest X-ray dose.

[6] = tested on: MM1.S human multiple myeloma cells; assay: Cell cycle profile (PI staining, sub-G1 cells); format: cell-based
Method: Apoptosis was determined by staining cells with annexin V-FITC and propidium iodide (PI). Cells were treated with DEX in the presence or absence of NM-3. NM-3 was added 2 hours before the addition of DEX. After 24 hours of DEX exposure, cells were washed twice with cold PBS, resuspended in binding buffer (10 mM HEPES/NaOH (pH 7.4), 140 mM NaCl, 2.5 mM CaCl2), and then stained with annexin V-FITC (Clontech Laboratories) and PI (Boehringer-Manheim). Apoptosis was analyzed by using a flow cytometer (EPICS XL-MCL, Coulter Corp). The cultured cells were also subjected to cell cycle analysis. Briefly, cells were washed twice with PBS and fixed with 70% ethanol. Cells were then washed with 0.5 ml PBS and 1.0 ml phosphate-citric acid buffer (0.2 M Na2HPO4 and 0.1 M citric acid (pH 7.8)), treated with 200 μg/ml RNase for 15 min at 37° C., and stained with 50 μg/ml PI for 30 min at room temperature in the dark. Cells were filtered through 35-μm diameter mesh to remove clumps. Nuclear staining was analyzed by a flow cytometer. Cells with fractional DNA content located on DNA frequency histograms to the left of the G1 peak (sub-G1 cells) were identified as apoptotic cells.

[7] = NM-3 1 mg/kg p.o. days 1-13, 15-41 alone
[8] = NM-3 5 mg/kg p.o. days 1-13, 15-41 alone

COc1cc(O)c2c(=O)oc(C(C)C(=O)O)cc2c1 (centres unmarked) [NM-3, 2-(8-hydroxy-6-methoxy-1-oxo-1H-2-benzopyran-3-yl) propionic acid]
IC50 [1]: > 100 µg/mL | IC50 (K562 (leukemia cells)): 250 µg/mL | IC50 [2]: 300 µg/mL | IC50 [3]: 223 µg/mL | IC50 (HT29 (colon tumor cells)): > 300 µg/mL | Inhibition (%) (IMC carcinoma; [7]): 10.2% | Solid Weight mg ± S.D. (IMC carcinoma; [7]): 11,093.0 ± 2040.6 mg | Inhibition (%) (IMC carcinoma; [8]): 12.6% | Solid Weight mg ± S.D. (IMC carcinoma; [8]): 10792.4 ± 2979.7 mg | Tumor weight versus control (IMC carcinoma; NM-3 alone): did not significantly reduce tumor weight | % Tumor Growth Inhibition [4]: 24.1% | Animals with complete cure (LLC tumor): 9 of 10 | IC50 (PC6): > 500 µg/mL | HUVEC colony survival ([5]; NM-3 100 ng/ml 1 hr prior to irradiation): 0.01% | Increase of sensitivity to X-ray induced lethality ([5]; NM-3 100 ng/ml): approximately 1000 fold | Cell cycle profiles ([6]; NM-3 alone, 50-200 μg/ml): only nominal effects | DEX-induced sub-G1 cells (apoptotic cells) ([6]; NM-3 with DEX 1 μM, 24 hours, concentration-dependent): increased DEX-induced sub-G1 cells
